Values of other authors, collected in article PMC12181400, “Leveraging viral genome sequences and machine learning models for identification of potentially selective antiviral agents” (Communications Chemistry, 2025).
Where a name gives a salt, the structure may show the parent alone. Read-outs that look alike come from different tables or passages of the source. Peptide text beside a SMILES is read from it.

What was measured:
Conditions in all cases: cited from earlier work
[1] = test system: cell viability (tox21-ap1-agonist-p1)
[2] = test system: cell viability (tox21-ar-mda-kb2-luc-agonist-p3)
[3] = test system: cell viability (tox21-ar-mda-kb2-luc-antagonist-p2)
[4] = test system: cell viability (tox21-are-bla-p1)
[5] = test system: cell viability (tox21-car-agonist-p1)
[6] = test system: cell viability (tox21-car-antagonist-p1)
[7] = curve rank −9 to 9, 0 = inactive, ref NCATS Tox21 public data browser

SMILES | tox21-ap1-agonist-p1-viability (curve rank) [1, 7] | tox21-ar-mda-kb2-luc-agonist-p3-viability (curve rank) [2, 7] | tox21-ar-mda-kb2-luc-antagonist-p2-viability (curve rank) [3, 7] | tox21-are-bla-p1-viability (curve rank) [4, 7] | tox21-car-agonist-p1-viability (curve rank) [5, 7] | tox21-car-antagonist-p1-viability (curve rank) [6, 7] | tox21-ap1-agonist-p1-viability (curve rank) [1] | tox21-ar-mda-kb2-luc-agonist-p3-viability (curve rank) [2] | tox21-ar-mda-kb2-luc-antagonist-p2-viability (curve rank) [3] | tox21-are-bla-p1-viability (curve rank) [4] | tox21-car-agonist-p1-viability (curve rank) [5] | tox21-car-antagonist-p1-viability (curve rank) [6]
COC(=O)[C@H](Cc1ccccc1)NC(=O)[C@@H](N)CC(=O)O [Aspartame] (H-Asp-Phe-OMe) | 0 | 0 | 0 | 0 | 0 | 0 | – | – | – | – | – | –
CC(C)(C)C(=O)OCOC(=O)[C@@H]1N2C(=O)[C@@H](NC(=O)[C@H](N)c3ccccc3)[C@H]2SC1(C)C [Pivampicillin] | – | – | – | – | – | – | 0 | 0 | 0 | 0 | 0 | 0
C=CCNC(N)=S [Allylthiourea] | 0 | 0 | 0 | 0 | 0 | 0 | – | – | – | – | – | –
COc1ccc(-c2cc(=O)c3c(O)cc(O[C@@H]4O[C@H](CO[C@@H]5O[C@@H](C)[C@H](O)[C@@H](O)[C@H]5O)[C@@H](O)[C@H](O)[C@H]4O)cc3o2)cc1O [Diosmin] | – | – | – | – | – | – | 0 | 0 | 0 | 0 | 0 | 0
Cc1ccccc1OCC(O)CO (stereo not drawn) [Mephenesin] | – | – | – | – | – | – | 0 | 0 | 0 | 0 | 0 | 0
CC(C)N(CCC(C(N)=O)(c1ccccc1)c1ccccn1)C(C)C (stereo not drawn) [Disopyramide] | – | – | – | – | – | – | 0 | 0 | 0 | 0 | 0 | 0
Oc1ccc(Cl)cc1 [4-Chlorophenol] | 0 | 0 | 0 | 0 | 0 | 0 | – | – | – | – | – | –
COc1ccc(C2CNC(=O)C2)cc1OC1CCCC1 (stereo not drawn) [Rolipram] | 0 | 0 | 0 | 0.67 | 0 | 0 | – | – | – | – | – | –
O=C1NCC2(CCN(CCc3ccccc3)CC2)O1 [Fenspiride hydrochloride] | 0 | 0 | 0 | 0 | 0 | 0 | – | – | – | – | – | –
